Measured values reported in PubChem BioAssay (NCI).
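Exposure lasted 48 hours, with cells grown in 96-well plates and compounds tested at five concentrations. TGI is the concentration that stops growth completely.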

Columns and labels:
Test in all cases: NCI tumour cell line growth inhibition, 48 h
CCRF-CEM leukemia = test system: CCRF-CEM leukemia
SNB-75 CNS = test system: SNB-75 CNS
M19-MEL melanoma = test system: M19-MEL melanoma
OVCAR-5 ovarian = test system: OVCAR-5 ovarian
SK-MEL-2 melanoma = test system: SK-MEL-2 melanoma
MOLT-4 leukemia = test system: MOLT-4 leukemia
SNB-19 CNS = test system: SNB-19 CNS
A549 NSCLC = test system: A549 NSCLC
LOX IMVI melanoma = test system: LOX IMVI melanoma
COLO 205 colon = test system: COLO 205 colon
M14 melanoma = test system: M14 melanoma
SK-MEL-28 melanoma = test system: SK-MEL-28 melanoma
EKVX NSCLC = test system: EKVX NSCLC
HCT-116 colon = test system: HCT-116 colon
SK-MEL-5 melanoma = test system: SK-MEL-5 melanoma
A498 renal = test system: A498 renal
NCI-H522 lung = test system: NCI-H522 lung
HCT-15 colon = test system: HCT-15 colon
786-0 renal = test system: 786-0 renal
ACHN renal = test system: ACHN renal
UACC-62 melanoma = test system: UACC-62 melanoma
CAKI-1 renal = test system: CAKI-1 renal
OVCAR-3 ovarian = test system: OVCAR-3 ovarian
TK-10 renal = test system: TK-10 renal
HOP-18 NSCLC = test system: HOP-18 NSCLC
SF-268 CNS = test system: SF-268 CNS
SK-OV-3 ovarian = test system: SK-OV-3 ovarian
RPMI-8226 leukemia = test system: RPMI-8226 leukemia
DMS 273 small cell lung = test system: DMS 273 small cell lung
DLD-1 colon = test system: DLD-1 colon
UO-31 renal = test system: UO-31 renal
RXF 393 renal = test system: RXF 393 renal
KM12 colon = test system: KM12 colon
HT29 colon = test system: HT29 colon
HL-60(TB) leukemia = test system: HL-60(TB) leukemia
SF-295 CNS = test system: SF-295 CNS
NCI-H226 lung = test system: NCI-H226 lung
OVCAR-8 ovarian = test system: OVCAR-8 ovarian
MALME-3M melanoma = test system: MALME-3M melanoma
SF-539 CNS = test system: SF-539 CNS
SN12C renal = test system: SN12C renal
K-562 leukemia = test system: K-562 leukemia
LXFL 529 NSCLC = test system: LXFL 529 NSCLC
KM20L2 colon = test system: KM20L2 colon
HOP-62 NSCLC = test system: HOP-62 NSCLC
U251 CNS = test system: U251 CNS
DMS 114 small cell lung = test system: DMS 114 small cell lung
HCC-2998 colon = test system: HCC-2998 colon
NCI-H460 lung = test system: NCI-H460 lung
SNB-78 CNS = test system: SNB-78 CNS
OVCAR-4 ovarian = test system: OVCAR-4 ovarian
SW-620 colon = test system: SW-620 colon
HOP-92 NSCLC = test system: HOP-92 NSCLC
BT-549 breast = test system: BT-549 breast
IGROV1 ovarian = test system: IGROV1 ovarian
NCI/ADR-RES ovarian = test system: NCI/ADR-RES ovarian
HS 578T breast = test system: HS 578T breast
UACC-257 melanoma = test system: UACC-257 melanoma
MCF7 breast = test system: MCF7 breast
MDA-MB-435 = test system: MDA-MB-435
SR leukemia = test system: SR leukemia
DU-145 prostate = test system: DU-145 prostate
NCI-H23 lung = test system: NCI-H23 lung
PC-3 prostate = test system: PC-3 prostate
T-47D breast = test system: T-47D breast
MDA-N = test system: MDA-N
MDA-MB-231 breast = test system: MDA-MB-231 breast

Measured: TGI

O=C(NO)C12C3C4C1C1C2C3C41C(=O)NO (stereo unspecified)
not listed: OVCAR-4 ovarian | SW-620 colon | HOP-92 NSCLC | BT-549 breast | IGROV1 ovarian | NCI/ADR-RES ovarian | HS 578T breast | UACC-257 melanoma | MCF7 breast | MDA-MB-435 | SR leukemia | DU-145 prostate | NCI-H23 lung | PC-3 prostate | T-47D breast | MDA-N | MDA-MB-231 breast
> 100 µM: all other assays above

c1ccc2c(c1)Nc1nc3nonc3nc1N2
not listed: SNB-75 CNS | M19-MEL melanoma | OVCAR-3 ovarian | HOP-18 NSCLC | DMS 273 small cell lung | DLD-1 colon | SF-539 CNS | LXFL 529 NSCLC | KM20L2 colon | DMS 114 small cell lung | SNB-78 CNS
> 100 µM: all other assays above

C[C@@]12CCC(=O)C=C1CC[C@H]1C2=CC[C@]2(C)C1CC[C@@]2(C)O (stereo partly specified)
77.9 µM: HL-60(TB) leukemia
not listed: M19-MEL melanoma | HOP-18 NSCLC | DMS 273 small cell lung | DLD-1 colon | LXFL 529 NSCLC | KM20L2 colon | DMS 114 small cell lung | SNB-78 CNS
> 100 µM: all other assays above

COc1ccc(C(c2ccccc2)C(C)C(=O)c2c(C)cc(C)cc2C)cc1 (stereo unspecified)
> 100 µM: M19-MEL melanoma | NCI-H522 lung | RPMI-8226 leukemia | HT29 colon | MALME-3M melanoma | K-562 leukemia
